These results are taken from patent US7579167B2, “Polypeptides involved in the biosynthesis of spiramycins, nucleotide sequences encoding these polypeptides and applications thereof” (Aventis Pharma S., priority 2002, dated 2009).

For assay [1] the following is noted: comparison with spiramycins II and III; cited from earlier work.
Assay [2] relates to Micrococcus luteus.
From the text: The strain of Micrococcus luteus used is a strain naturally sensitive to spiramycin but resistant to congocidine.

As to `CO[C@@H]1[C@@H](O[C@@H]2O[C@H](C)[C@@H](O[C@H]3C[C@@](C)(O)[C@@H](O)[C@H](C)O3)[C@H](N(C)C)[C@H]2O)[C@@H](CC=O)C[C@@H](C)[C@@H](O[C@H]2CC[C@H](N(C)C)[C@@H](C)O2)/C=C/C=C/C[C@@H](C)OC(=O)C[C@H]1O` [spiramycin I], in assay [1], the “antibiotic activity compared with spiramycins II and III” value is “clearly greater”. Consider `CC1CC=CC=CC(OC2CCC(N(C)C)C(C)O2)C(C)CC(CC=O)C(OC2OC(C)C(OC3CC(C)(O)C(O)C(C)O3)C(N(C)C)C2O)C(O)C(O)CC(=O)O1` (stereo not drawn) [spiramycin without the methyl group], for which the “activity compared with the spiramycin of origin with the methyl group at position 4 (less active by a factor)” value in assay [2] (microbiological test on a sensitive strain of M. luteus) turned out to be 10. In addition, in assay [2] (tested on the microorganism Micrococcus luteus, relative to unmodified spiramycin), the “microbiological activity compared with the unmodified spiramycin (weaker)” value was 10 fold.
